Here are results for 7 compounds from US7816521B2, “1,2,4-benzotriazine-1,4-dioxides” (Auckland Uniservices Limited, priority 2004, dated 2010).

Series [1] deals with human colon carcinoma cell line HT-29. The experiment in a line: Proliferation assay (IC50) under aerobic and hypoxic conditions. It is filed as cell-based. Conditions: for IC50: Homo sapiens, HT-29, HT29, anoxic, 4 hr exposure; for HCR: hypoxic cytotoxicity ratio: aerobic IC50 / hypoxic IC50, HT29. The protocol: Compounds representative of the invention were evaluated under both aerobic and hypoxic conditions in a proliferation assay (IC50) using the human colon carcinoma cell line HT-29 as previously described [Hay et al, J. Med. Chem, 2003, 46, 169]. For each experiment, compounds were simultaneously tested under both oxic and hypoxic conditions and included TPZ as an independent internal control at the front and back of the assay. In all cases, a 8-methyl-5-nitroquinoline derivative was used as a second internal control to confirm that strict hypoxia was present during the experiment [Siim et al., Br. J. Cancer 1994, 70, 596].

A short description of series [2]: Plasma pharmacokinetics, AUC of free drug in CD-1 nude mice. It is filed as in vivo, mouse. Conditions: CD-1 nude, mouse, plasma, ip, mouse plasma, free drug, at the MTD or 75% of the MTD; Table 2; read-out: AUC. The protocol:
The area under the concentration time curve for free drug (AUCf) in mouse plasma at the maximum tolerated dose (MTD) was determined either experimentally or by calculation.
The compound was formulated in a suitable vehicle (e.g. 0.9% saline, 5% DMSO in 0.9% saline) and administered intraperitoneally (i.p.) as single dose to CD-1 nude mice in a dose-escalating format using 1.33-fold dose increments.
The compound was administered to CD-1 nude mice in a suitable formulation as a single dose (i.p.) at the MTD. Blood samples were collected by retro-orbital sinus bleed or cardiac puncture after which the mouse was culled, or by serial bleeding from the tail vein. Typical time points were 15, 30, 60, and 120 min after administration. Blood was collected in a heparinised container and centrifuged to collect the plasma. The plasma concentration of the compound was determined by HPLC or LCMS using suitable sample preparation and analytical methods. Calibration was done with internal or external standards. The area under the concentration-time curve (AUC) for total (free plus bound) drug was calculated using the linear/log trapezoidal rule and extrapolation to infinity OR standard non-compartmental (PK) modelling.
Plasma protein binding was measured by the determination of the free fraction (FF) by equilibrium dialysis at 37° C. in 50% (v/v) mouse plasma in phosphate-buffered saline (pH 7.4), using a single drug concentration at or near the observed or extrapolated maximum concentration in plasma (Cmax). Compound concentrations after dialysis were determined by HPLC or LCMS.
AUCf for the compound administered as a single dose (i.p.) to CD-1 nude mice at the MTD can be estimated using the following regression equation: Log10(AUCf)=a+b×log Pneutral+c×log10(IC50)+d×log10(HCR)+e×log10(DMCL)+f×log10(kmet)+g×(log Pneutral)^2 where the coefficients are described in the following table: […]

The nature of series [3]: Solubility in culture medium. It is filed as physicochemical. Conditions: culture medium (αMEM with 5% foetal bovine serum), plasma or biological fluid, thermodynamic from solid; culture medium (αMEM, 5% foetal bovine serum), pH 7.4; no unit in table, threshold is 2 mM. Here is the method:
Solubility is determined in laboratory culture medium (alpha minimal essential medium (αMEM) with 5% foetal bovine serum) saturated with 5% carbon dioxide at pH 7.4, by addition of excess compound and sonication at ambient temperature for 15 minutes. Alternatively the compound is diluted from a concentrated stock solution in DMSO into culture medium to give a final DMSO concentration <1%. The mixture is centrifuged at 13,000 rpm for 6 minutes and the concentration of drug in the supernatant solution is then determined by HPLC using a standard reference solution in a suitable solvent.

Series [4] relates to hypoxic cells in HT29 tumours. The experiment in a line: HT29 excision assay (drug after 20 Gy radiation, clonogenic survival). It is filed as in vivo, human. Conditions: log10 kill of hypoxic cells in HT29 tumours, additional to radiation alone; MTD or 75% of MTD; Table 2. The source says:
In order to test the validity of this PK/PD model as a tool for predicting the antitumour activity of TPZ analogues, the inventors determined the key PK/PD parameters for 13 TPZ analogues, and TPZ itself, for the HT29 human colon carcinoma cell line. These parameters were then used to calculate the expected killing in hypoxic regions of HT29 tumours following a single intraperitoneal dose of the compounds at their maximum tolerated dose. The results of this calculation were then compared with measured killing of hypoxic cells in HT29 tumours, determined by administering the compounds immediately (within 5 min) after gamma irradiation (cobalt 60, 20 Gy) to sterilise oxygenated cells in the tumours. Tumours were removed 18 hours later and the number of surviving cells determined by clonogenic assay. The measured PK/PD parameters, model prediction (using the above 3D microvascular network), and experimentally determined hypoxic cell kill is shown in Table 1, and the relationship between predicted and measured cell kill in FIG. 4. The prediction is statistically highly significant (p=0.001, Fisher exact test). […] If the extravascular transport component was excluded from the model, the R^2 for this regression was only 0.28 and the relationship was not statistically significant.
Animals were treated with radiation alone (RAD, 20 Gy whole body); RAD+TPZ (316 μmol/kg); compound 3 (562 μmol/kg); RAD+compound 3 (562 μmol/kg). Tumours were excised 18 hr after treatment and clonogenic survival determined by staining colonies 14 days later. Each symbol represents a separate tumour. p<0.01 (one way ANOVA with Dunnett's test) for RAD+compound 3 and for RAD+TPZ versus RAD only. Horizontal lines are the historical means for untreated controls (upper line) and 20 Gy radiation only (lower line).
Compounds were evaluated with single dose radiation using s.c. HT29 tumors (average of two largest diameters 7-10 mm) grown by inoculating 10^7 cells (obtained by enzymatic dissociation of multicellular spheroids). Drugs were administered as single i.p. doses at their MTD with the following groups in each experiment. A: vehicle control, B: test drug, C: Radiation (20 Gy, cobalt-60, whole body irradiation), D: TPZ (316 μmol/kg) 5 min after radiation, E: Test drug 5 min after radiation. Each group included 3 (A, B) or 5 (C-E) mice. Tumors were excised 18 hr after treatment and plated to determine clonogenicity. Hypoxic cytotoxicity is determined by the difference in surviving fraction between groups C and E, while comparison of A and B evaluates oxic cell killing. Total yield of clonogens was used as the key parameter if cell yields were affected by treatment. Results of this assay are illustrated for compound 3 (and TPZ) in FIG. 5.

Values after ≈ are worked out from the molar mass of the structure shown.

With `CCc1n[n+]([O-])c2ccc(OCCN(C)C)cc2[n+]1[O-]` [T, 2-[(3-Ethyl-1,4-dioxido-1,2,4-benzotriazin-6-yl)oxy]-N, N-dimethylethaneamine], in series [1], the IC50 came out at 1.33 µM and the HCR stood at 307.2. For the same compound, the AUC in series [2] came to 55.7 µM·h. This compound yielded a solubility in series [3] of 48.5 mM (≈ 13.5 mg/mL). For the same compound, the HT29 log kill in series [4] is on record as 0.88.

For `COc1ccc2c(c1)[n+]([O-])c(NCCN(C)C)n[n+]2[O-]` [P, N^1-(6-Methoxy-1,4-dioxido-1,2,4-benzotriazin-3-yl)-N^2,N^2-dimethyl-1,2-ethanediamine], in series [1], the IC50 is 7.65 µM and the HCR worked out at 89.3. The area under the curve (AUC) in series [2] is 240 µM·h. In series [3], this compound showed a solubility of 45.5 mM (≈ 12.7 mg/mL). In series [4], this compound came in with an HT29 log kill of 1.84.

For the compound `CCc1n[n+]([O-])c2ccc(OCCCN3CCOCC3)cc2[n+]1[O-]` [U, 3-Ethyl-6-[3-(4-morpholinyl)propoxy]-1,2,4-benzotriazine 1,4-Dioxide], in series [1], the IC50 amounted to 6.17 µM and the HCR was 166.2. For the same compound, the AUC in series [2] came out at 162 µM·h. The compound further gave a solubility in series [3] of 46.7 mM (≈ 15.6 mg/mL). In addition, the HT29 log kill in series [4] was 1.66.

Take `CCc1ccc2c(c1)[n+]([O-])c(NCCCN1CCOCC1)n[n+]2[O-]` [S, 6-Ethyl-N-[3-(4-morpholinyl)propyl]-1,2,4-benzotriazin-3-amine 1,4-Dioxide]: in series [1], the IC50 was 10.4 µM and the HCR came to 35.0. For the same compound, the AUC in series [2] was found to be 94.9 µM·h. In addition, the solubility in series [3] was found to be 54.9 mM (≈ 18.3 mg/mL). This compound also registered an HT29 log kill in series [4] of 0.82.

Consider `Cc1ccc2c(c1)[n+]([O-])c(NCCCN1CCOCC1)n[n+]2[O-]` [O, 6-Methyl-N-[3-(4-morpholinyl)propyl]-1,2,4-benzotriazin-3-amine 1,4-Dioxide], for which, in series [1], the midpoint of inhibition, the IC50, lay at 15.5 µM and the HCR turned out to be 24.7. Also, the AUC in series [2] amounted to 195 µM·h. In addition, in series [3], the solubility turned out to be 42.6 mM (≈ 13.6 mg/mL). Besides, the HT29 log kill in series [4] was found to be 1.28.

Regarding `COCCOc1ccc2c(c1)[n+]([O-])c(NCCN(C)C)n[n+]2[O-]` [Q, N^1-[6-(2-Methoxyethoxy)-1,4-dioxido-1,2,4-benzotriazin-3-yl]-N^2,N^2-dimethyl-1,2-ethanediamine], in series [1], the half-inhibitory concentration (IC50) worked out at 4.98 µM and the HCR is 162.0. The AUC in series [2] was 256 µM·h. This compound also gave a solubility in series [3] of 51.2 mM (≈ 16.6 mg/mL). The compound further came in with an HT29 log kill in series [4] of 0.53.

As to `CCOc1ccc2c(c1)[n+]([O-])c(NCCN(C)C)n[n+]2[O-]` [R, N^1,N^1-Dimethyl-N^2-(6-ethoxy-1,4-dioxido-1,2,4-benzotriazin-3-yl)-1,2-ethanediamine], in series [1], half-maximal inhibition (IC50) required 2.6 µM and the HCR was 120.6. In series [2], the exposure (AUC) is 82.4 µM·h. Also, the solubility in series [3] was 50.3 mM (≈ 14.8 mg/mL). In series [4], this compound yielded an HT29 log kill of 0.83.
